# Source: US20240199552A1, “AMIDE COMPOUND AND USE THEREOF” (Metisa Biotechnology Co., Ltd, priority 2021, published 2024)
# What was measured:
# Type in all cases: in vivo
# Mythimna separata = experiment: Insecticidal activity against Mythimna separata, Airbrush spray on maize leaf pieces; conditions: 72 h, 0.05 mg/L, 3 days after the administration, 3rd-instar larvae, read-out: mortality rate against Mythimna separata
# Method: (§1) After the compound to be determined was dissolved in a mixed solvent of acetone/methanol (1:1), it was diluted with water containing 0.1% (wt) Tween-80 to a desired concentration.
# (§2) Mythimna separata, Diamondback moth, Chilo suppressalis, Spodoptera exigua, Myzus persicae, and Franklinella occidentalis were used as targets, and the activity was tested by an Airbrush spray method.
# Determination method: maize leaves were cut into 2 cm leaf pieces, and the front and back of each leaf piece were sprayed under an Airbrush spray treatment pressure of 10 psi (approximate to 0.7 kg/cm^2) and with a spray volume of 0.5 mL. After drying in the shade, 10 3rd-instar larvae were inoculated for each treatment, and each treatment was repeated for 3 times. After the treatment, the leaf pieces were put into an observation chamber at 25° C. and with a relative humidity of 60% to 70%, and the number of living larvae was investigated 3 days after the administration of the compounds, and the mortality rates were calculated.
# Diamondback moth = experiment: Insecticidal activity against Diamondback moth, Airbrush spray on cabbage leaf discs; conditions: Plutella xylostella, foliar, 72 h, 3 days after the administration; for mortality at 0.156 µg/mL: 0.156 mg/L, read-out: Mortality rate (%, 3 days after the administration) 0.156 mg/L; for mortality at 0.156 µg/mL / mortality at 0.313 µg/mL / mortality at 10 µg/mL: Diamondback moth; for mortality at 0.313 µg/mL: 0.313 mg/L, read-out: Mortality rate (%, 3 days after the administration) 0.313 mg/L; for mortality at 1.25 µg/mL: 1.25 mg/L, 3rd-instar larvae, read-out: mortality rate against Diamondback moth; for mortality at 10 µg/mL: 10 mg/L, read-out: Mortality rate (%, 3 days after the administration) 10 mg/L
# Method: as §1, §2
# Determination method: cabbage leaves were formed into leaf discs having a diameter of 2 cm using a puncher, and the front and back of each leaf disc were sprayed under an Airbrush spray treatment pressure of 10 psi (approximate to 0.7 kg/cm^2) and with a spray volume of 0.5 mL. After drying in the shade, 10 3rd-instar larvae were inoculated for each treatment, and each treatment was repeated for 3 times. After the treatment, the leaf discs were placed into an observation chamber at 25° C. and with a relative humidity of 60% to 70%, and the number of living larvae was investigated 3 days after the administration of the compounds, and the mortality rates were calculated.
# Chilo suppressalis = experiment: Insecticidal activity against Chilo suppressalis, sprayed rice stems; conditions: 72 h, 0.625 mg/L, 3 days after the administration, 3rd-instar larvae, read-out: mortality rate against Chilo suppressalis
# Method: as §1, §2
# Determination method: 1) Preparation of rice seedlings: rice was cultured in a plastic small cup with a diameter of 4.5 cm and a height of 4 cm in a constant temperature room (the temperature was 26-28° C., the relative humidity was about 60-80%, and the illumination was 16hL:8hD), when the rice grown to a 4-5 leaf stage, robust and uniformly grown rice seedlings were selected for pharmaceutical treatment, and 3 replicates were set for each treatment. 2) Preparation of test insects: 3rd-instar larvae of Chilo suppressalis were continuously reared indoors. 3) Rice stems were sprayed and insects were introduced. A spray method was used to treat whole rice seedlings with uniform spray, and each treatment was 15 mL. Blank controls were treated firstly, and then the above operation was repeated in an order of experimental concentrations from low to high. After the spray treatment of the rice seedlings, they were placed in the shade to air-dry drug liquid, about 5 cm of the stem from a basal part of the stem was cut and fed to the test insects. A glass culture dish with a diameter of 90 mm was prepared, filter paper was placed on the bottom of the dish, then water was added to moisturize. About 5 rice stems were placed in each dish, 10 larvae were introduced, and the culture dish was closed with non-woven fabric and placed in the constant-temperature room for culture. 3 days after the administration, the number of residual live insects was investigated.
# Spodoptera exigua = experiment: Insecticidal activity against Spodoptera exigua, leaf disc dipping feeding method; conditions: foliar, 72 h, 0.625 mg/L, 3 days after the administration, read-out: mortality rate against Spodoptera exigua
# Method: After the compound to be determined was dissolved in a mixed solvent of acetone/methanol (1:1), it was diluted with water containing 0.1% (wt) Tween-80 to a desired concentration. […]
# Determination method: the activity was tested by using a leaf disc dipping feeding method. Leaf discs were dipped in a drug solution for 10 s, and placed in a culture dish after being air-dried, there were 4 discs in each dish, and a filter paper was placed in the culture dish for moisture retention. 10 test insects of Spodoptera exigua were introduced to each dish, with 3 replicates.
# They were placed in a light incubator for culture at a temperature of 25° C. and an illumination of 14hL:10hD. On the 1st, 2nd, and 3rd day after the administration, the number of dead Spodoptera exigua was investigated and the mortality rate was calculated.
# Myzus persicae = experiment: Insecticidal activity against Myzus persicae, Airbrush spray on cabbage leaves; conditions: 50 mg/L, after 48 h, read-out: mortality rate against Myzus persicae
# Method: as §1, §2
# Determination method: a culture dish with a diameter of 6 cm was taken, the bottom of the dish was covered by a layer of filter paper, and an appropriate amount of tap water was added to moisturize the paper. Cabbage leaves with an appropriate size (the diameter was about 3 cm) and 15-30 aphids grown were cut from cabbage plants used to culture Myzus persicae, winged aphids and aphids on the front of the leave were removed, and it was placed in the culture dish while the back of the leave was upward. The pressure of airbrush spray treatment was 10 psi (about 0.7 kg/cm^2), the liquid spray volume was 0.5 mL, and there were 3 replicates for each treatment. After the treatment, the leave was put into an observation room for culture at 25° C. and a relative humidity of 60-70%. After 48 h, the number of live insects was investigated and the mortality rate was calculated.
# [1] = test system: Franklinella occidentalis; experiment: Insecticidal activity against Franklinella occidentalis nymphs, sprayed bean leaves
# Method: as §1, §2
# Determination method: fresh bean leaves cultivated in a greenhouse were selected, a hand-held Airbrush sprayer was used to spray uniformly, each treatment was 1 mL, and after being air-dried naturally, the leaves were placed in a finger-shaped tube. Neat and healthy Franklinella occidentalis nymphs were introduced, there were 15 nymphs for each treatment, 3 replicates were set for the experiment, and water treatment was set as a blank control. After the treatment, the leaves were put into an indoor culture room for culture at 24° C., a relative humidity of 60-70%, and natural light. After 72 h, the number of live insects was investigated and the mortality rate was calculated.
# cat flea = experiment: Insecticidal experiment on cat flea, thin film in culture dish; conditions: Ctenocephalides felis, 72 h, read-out: mortality rate, cat flea
# Method: 4 mg of the compound to be determined was dissolved in 40 mL of acetone to obtain an acetone solution with a concentration of 100 mg/L. 400 μL of the drug solution was applied on the bottom and sides of a culture dish with an inner diameter of 5.3 cm, then after acetone was evaporated, a thin film of the compound of the present invention was made on the inner wall of the culture dish. The inner wall of the culture dish used was 40 cm^2, and the treatment dosage was 1 μg/cm^2. 10 adult cat fleas (mixed male and female) were put into the dish, and it was stored in a constant-temperature room at 25° C. after being covered. The number of dead insects after 72 h was checked and the mortality rate was calculated. The experiment was repeated for 3 times.
SMILES,mortality at 0.05 µg/mL (Mythimna separata) [%],mortality at 0.156 µg/mL (Diamondback moth) [%],mortality at 0.313 µg/mL (Diamondback moth) [%],mortality at 1.25 µg/mL (Diamondback moth) [%],mortality at 10 µg/mL (Diamondback moth) [%],mortality at 0.625 µg/mL (Chilo suppressalis) [%],mortality at 0.625 µg/mL (Spodoptera exigua) [%],mortality at 50 µg/mL (Myzus persicae) [%],"Mortality rate (%, 3 days after the administration) 10 mg/L [1] [%]","Mortality rate (%, 3 days after the administration) 100 mg/L [1] [%]",mortality at 1 µg/cm2 (cat flea) [%]
C=CCN(C(=O)c1ccc(F)cc1)c1cccc(C(=O)Nc2c(Br)cc(C(F)(C(F)(F)F)C(F)(F)F)cc2C(F)(F)F)c1F [Compound 7],> 90,100,100,> 90,100,> 90,> 90,> 90,91.11,100,> 90
C=CCN(C(=O)c1ccc(F)cc1)c1cccc(C(=O)Nc2c(I)cc(C(F)(C(F)(F)F)C(F)(F)F)cc2C(F)(F)F)c1F [Compound 8],> 90,100,100,> 90,100,> 90,> 90,> 90,88.89,100,> 90
C=CCN(C(=O)c1ccc(F)nc1)c1cccc(C(=O)Nc2c(Br)cc(C(F)(C(F)(F)F)C(F)(F)F)cc2C(F)(F)F)c1F [Compound 19],> 90,100,100,> 90,100,> 90,> 90,> 90,100,100,> 90
C=CCN(C(=O)c1ccc(F)nc1)c1cccc(C(=O)Nc2c(I)cc(C(F)(C(F)(F)F)C(F)(F)F)cc2C(F)(F)F)c1F [Compound 20],> 90,100,100,> 90,100,> 90,> 90,> 90,100,100,> 90
C#CCN(C(=O)c1ccccc1)c1cccc(C(=O)Nc2c(Br)cc(C(F)(C(F)(F)F)C(F)(F)F)cc2C(F)(F)F)c1F [Compound 31],> 90,100,100,> 90,100,> 90,> 90,> 90,97.78,100,> 90
C#CCN(C(=O)c1ccc(F)cc1)c1cccc(C(=O)Nc2c(Br)cc(C(F)(C(F)(F)F)C(F)(F)F)cc2C(F)(F)F)c1F [Compound 35],> 90,100,100,> 90,100,> 90,> 90,> 90,100,100,> 90
C#CCN(C(=O)c1ccc(F)cc1)c1cccc(C(=O)Nc2c(I)cc(C(F)(C(F)(F)F)C(F)(F)F)cc2C(F)(F)F)c1F [Compound 36],> 90,100,100,> 90,100,> 90,> 90,> 90,95.56,100,> 90
C#CCN(C(=O)c1ccc(F)nc1)c1cccc(C(=O)Nc2c(Br)cc(C(F)(C(F)(F)F)C(F)(F)F)cc2C(F)(F)F)c1F [Compound 47],> 90,100,100,> 90,100,> 90,> 90,> 90,100,100,> 90
